Results as given in patent publication US4267312A, “Anthracycline derivatives and process for preparing the same” (Sanraku-Ocean Co., Ltd., priority 1978, dated 1981).
Values after ≈ are worked out from the molar mass of the structure shown.

Columns and labels:
[1] = system: murine leukemic L1210 cells; assay: growth inhibition of murine leukemic L1210 cells in culture; type: cell-based; conditions: Mus musculus, RPMI 1640, 20% calf serum, 37° C., read-out: inhibition of control growth; for inhibition at 0.5 µg/mL: 0.5 μg/ml
Experimental: For example, L1210 cells were inoculated into a RPMI 1640 medium (Nissui, Rosewell Park Memorial Institute 1640) containing 20% calf serum at the cell density of 5×10^4 cells/ml and the compound in the present invention was simultaneously added to the medium at the concentration of 0.1 and 0.5 μg/ml and cultivated at 37° C. in a CO2 incubator.

[2] = system: biosynthesis of DNA in L1210 cells; assay: DNA biosynthesis in L1210 cells (incorporation of 14C-thymidine into acid-insoluble materials); type: cell-based, murine; conditions: Mus musculus, L1210, 1 h; 60 min, 37° C., 14C-thymidine 0.05 μCi/ml; read-out: IC50 of the incorporation of radioactivity into acid-insoluble materials, 14C-thymidine
Experimental: (§1) (2) L1210 cells were inoculated at 5×10^5 cells/ml into a RPMI 1640 medium containing 10% calf serum and cultivated at 37° C. for 1 to 2 hours in a CO2 incubator. The compound in the present invention at various concentrations and ^14 C-thymidine (0.05 μCi/ml) or ^14 C-uridine (0.05 μCi/ml) were added and incubated at 37° C. for 60 min. After stopping the pulse-labeling by addition of 10% trichloroacetic acid (TCA) to the reaction mixture, acid-insoluble materials were precipitated, washed 3 times with 5 to 10% TCA, and dissolved in a small amount of formic acid, and then the radioactivity of the solution was determined. Effects on the biosynthesis of DNA and RNA were shown by the 50% inhibition concentration (IC50) of the incorporation of radioactivity into acid-insoluble materials.

[3] = system: biosynthesis of RNA in L1210 cells; assay: RNA biosynthesis in L1210 cells (incorporation of 14C-uridine into acid-insoluble materials); type: cell-based, murine; conditions: Mus musculus, L1210, 1 h; 60 min, 37° C., 14C-uridine 0.05 μCi/ml; read-out: IC50 of the incorporation of radioactivity into acid-insoluble materials, 14C-uridine
Experimental: as §1

leukemic L1210 = assay: antitumor activity in leukemic L1210-bearing mice; type: in vivo, BDF1 mice; conditions: in words
Experimental: (§2) For example, BDF1 mice were inoculated intraperitoneally with 1×10^6 cells/mouse. 24 hours after inoculation, the compound was intraperitoneally injected once daily for 10 days consecutively. […] At the dose of 10 mg/kg/day weight loss was observed, but general toxicity was less than daunomycin.

toxicity in mice = type: in vivo; conditions: in words
Experimental: as §2

Sal. typhimurium = assay: mutagenicity by the Ames' test

Structure (SMILES)	inhibition at 0.1 µg/mL ([1]; 0.1 μg/ml) [%]	inhibition at 0.5 µg/mL [1] [%]	IC50 [2] [µg/mL]	IC50 [3] [µg/mL]	antitumor activity in leukemic L1210-bearing mice (leukemic L1210)	toxicity in mice compared with daunomycin (toxicity in mice)	mutagenicity relative to daunomycin (Sal. typhimurium)
COc1ccc(O)c2c1C(=O)c1c(O)c3c(c(O)c1C2=O)C[C@@](O)(C(C)O)C[C@@H]3O[C@H]1C[C@H](N)[C@H](O)[C@H](C)O1 (stereo partly shown) [1-hydroxy-13-dihydrodaunomycin]	10.8	52.2	3.8 (≈ 6.97 µM)	1.8 (≈ 3.3 µM)	marked antitumor activity	lower toxicity than daunomycin	decrease about a half of daunomycin
COc1ccc(O)c2c1C(=O)c1c(O)c3c(c(O)c1C2=O)C[C@@](O)(C(C)O)C[C@@H]3O[C@H]1C[C@H](NC=O)[C@H](O)[C@H](C)O1 (stereo partly shown) [N-formyl-1-hydroxy-13-dihydrodaunomycin]	–	16	> 2.5	> 2.5	marked antitumor activity	lower toxicity than daunomycin	decrease about a half of daunomycin
